EC50 data for 36 compounds are collected here from patent US10214507B2, “Carbazole-containing amides, carbamates, and ureas as cryptochrome modulators” (Reset Therapeutics, Inc., priority 2014, dated 2019).

The test has as its system stable U20S reporter cells harboring Per2-dLuc. The experiment in a line: Per2 assay for evaluating the potency of test compounds (circadian luciferase reporter). Format: cell-based. The note with it: amplitude of Per2-dLuc luminescence vs log concentration. The protocol: Compounds were screened by using a high-throughput circadian assay system as previously described in Zhang, E. E. et al. Cell, 2009, 139, 199-210. In brief, stable U20S reporter cells harboring Per2-dLuc were plated at a density of 30,000 cells/well in Corning 96-well, solid white, flat bottom, TC-treated microplates (Corning®), and incubated for 48 hours at 37° C. in the presence of 5% CO2 in a medium of Dulbecco's Modified Eagle Medium (DMEM) supplemented with 10% fetal bovine serum (FBS) and penicillin (100 units/mL)-streptomycin (100 μg/mL). […] DMSO stocks are then serially diluted in DMSO, typically diluting 3-fold for each dilution step. Following the 48 h period, cell culture medium is removed from plated cells and cells are synchronized with 200 μL/well of complete cell culture medium (described above), supplemented with 5 μM forskolin (Tocris®) and 1 mM beetle luciferin (Promega®). Immediately following synchronization, 1 μL of compound dilution is added to each well. Plates are sealed, shaken briefly, and gene expression was monitored by measuring luminescence (Tecan® Infinite M200 or Tecan® Infinite M200 Pro) continuously for a minimum of 3 days at 35° C. Raw luminescence data (counts) are first analyzed using Multicycle™ software (Actimetrics, Inc.) to determine the amplitude (amp), period, and phase (phz) for each compound concentration. The period length for control wells (i.e. no compound, DMSO only) should be 26-30 h. Amp data are then plotted against the logarithm compound concentration (M) and analyzed by nonlinear regression analysis to determine the EC50.
In general terms: Reporter assays use an easily measured gene product as a stand-in for the process of interest.
The term EC50 denotes the concentration that produces a half-maximal response. Lower therefore signals an effect from little substance. The compound `CC(C)N1CCCN(CC(C)(O)Cn2c3ccc(F)cc3c3cc(F)ccc32)C1=O` (stereo not drawn) [Compound 80, 1-(3-(3,6-difluoro-9H-carbazol-9-yl)-2-hydroxy-2-methylpropyl)-3-isopropyltetrahydropyrimidin-2(1H)-one] showed a concentration giving a half-maximal response (EC50) of 1100 nM.
The figure for `O=C1N(CC(O)Cn2c3ccc(F)cc3c3cc(F)ccc32)CCCC1(F)F` (stereo not drawn) [Compound 13, 1-(3-(3,6-difluoro-9H-carbazol-9-yl)-2-hydroxypropyl)-3,3-difluoropiperidin-2-one] is 288 nM.
Take `C[C@@](O)(CN1CC[C@H](F)C1=O)Cn1c2ccc(F)cc2c2cc(F)ccc21` [Compound 125, (S)-1-((S)-3-(3,6-difluoro-9H-carbazol-9-yl)-2-hydroxy-2-methylpropyl)-3-fluoropyrrolidin-2-one]: the response was half-maximal at 451 nM (EC50).
The compound `CCC1CCCN(CC(O)Cn2c3ccc(F)cc3c3cc(F)ccc32)C1=O` (stereo not drawn) [Compound 24, 1-(3-(3,6-difluoro-9H-carbazol-9-yl)-2-hydroxypropyl)-3-ethylpiperidin-2-one] had a concentration giving a half-maximal response (EC50) of 332 nM.
The figure for `O=C1N(CC(O)Cn2c3ccc(F)cc3c3cc(F)ccc32)CCN1C1CC1` (stereo not drawn) [Compound 92, 1-cyclopropyl-3-(3-(3,6-difluoro-9H-carbazol-9-yl)-2-hydroxypropyl)imidazolidin-2-one] is 527 nM; for `O=C1N(CC(O)Cn2c3ccccc3c3ccccc32)CCN1C1CCC1` (stereo not drawn) [Compound 96, 1-(3-(9H-carbazol-9-yl)-2-hydroxypropyl)-3-cyclobutylimidazolidin-2-one] it is 493 nM.
With `CCN1CCCN(CC(C)(O)Cn2c3ccc(F)cc3c3cc(F)ccc32)C1=O` (stereo not drawn) [Compound 87, 1-(3-(3,6-difluoro-9H-carbazol-9-yl)-2-hydroxy-2-methylpropyl)-3-ethyltetrahydropyrimidin-2(1H)-one], the 50% effective concentration (EC50) is 317 nM.
Compound `CCN1CCCN(CC(O)Cn2c3ccccc3c3ccccc32)C1=O` (stereo not drawn) [Compound 95, 1-(3-(9H-carbazol-9-yl)-2-hydroxypropyl)-3-ethyltetrahydropyrimidin-2(1H)-one] came in with a 50% effective concentration (EC50) of 568 nM.
For `O=C1CCCN1CC(O)Cn1c2ccccc2c2ccccc21` (stereo not drawn) [Compound 68, 1-(3-(9H-carbazol-9-yl)-2-hydroxypropyl)pyrrolidin-2-one] the value was 288 nM; for `CC(O)(CN1CCCC1=O)Cn1c2ccc(F)cc2c2cc(F)ccc21` (stereo not drawn) [Compound 8, 1-(3-(3,6-difluoro-9H-carbazol-9-yl)-2-hydroxy-2-methylpropyl)pyrrolidin-2-one], 527 nM.
The figure for `O=C1N(CC(O)Cn2c3ccc(F)cc3c3cc(F)ccc32)CCCN1c1ccccc1` (stereo not drawn) [Compound 75, 1-(3-(3,6-difluoro-9H-carbazol-9-yl)-2-hydroxypropyl)-3-phenyltetrahydropyrimidin-2(1H)-one] is 171 nM; for `CC(O)(CN1CCCC(C2CCCCC2)C1=O)Cn1c2ccc(F)cc2c2cc(F)ccc21` (stereo not drawn) [Compound 21, 3-cyclohexyl-1-(3-(3,6-difluoro-9H-carbazol-9-yl)-2-hydroxy-2-methylpropyl)piperidin-2-one] it is 1040 nM; for `O=C1CC(C2CC2)CN1CC(O)Cn1c2ccccc2c2ccccc21` (stereo not drawn) [Compound 65, 1-(3-(9H-carbazol-9-yl)-2-hydroxypropyl)-4-cyclopropylpyrrolidin-2-one] it is 1030 nM.
The figure for `CC(C)C1CCCN(CC(O)Cn2c3ccc(F)cc3c3cc(F)ccc32)C1=O` (stereo not drawn) [Compound 25, 1-(3-(3,6-difluoro-9H-carbazol-9-yl)-2-hydroxypropyl)-3-isopropylpiperidin-2-one] is 79 nM; for `CC(O)(CN1CCC(c2ccccc2)C1=O)Cn1c2ccc(F)cc2c2cc(F)ccc21` (stereo not drawn) [Compound 54, 1-(3-(3,6-difluoro-9H-carbazol-9-yl)-2-hydroxy-2-methylpropyl)-3-phenylpyrrolidin-2-one] it is 808 nM.
`CC(C)N1CCN(CC(O)Cn2c3ccc(F)cc3c3cc(F)ccc32)C1=O` (stereo not drawn) [Compound 90, 1-(3-(3,6-difluoro-9H-carbazol-9-yl)-2-hydroxypropyl)-3-isopropylimidazolidin-2-one] came in with an EC50 of 605 nM.
Compound `COC1CCCN(CC(O)Cn2c3ccccc3c3ccccc32)C1=O` (stereo not drawn) [Compound 60, 1-(3-(9H-carbazol-9-yl)-2-hydroxypropyl)-3-methoxypiperidin-2-one] showed an EC50 of 331 nM.
For `CC(O)(CN1CCCC(F)C1=O)Cn1c2ccc(F)cc2c2cc(F)ccc21` (stereo not drawn) [Compound 12, 1-(3-(3,6-difluoro-9H-carbazol-9-yl)-2-hydroxy-2-methylpropyl)-3-fluoropiperidin-2-one] the value was 909 nM; for `CC1CCC(=O)N(CC(O)Cn2c3ccccc3c3ccccc32)C1` (stereo not drawn) [Compound 62, 1-(3-(9H-carbazol-9-yl)-2-hydroxypropyl)-5-methylpiperidin-2-one], 370 nM.
The figure for `CC(O)(CN1Cc2ccccc2NC1=O)Cn1c2ccc(F)cc2c2cc(F)ccc21` (stereo not drawn) [Compound 102, 3-(3-(3,6-difluoro-9H-carbazol-9-yl)-2-hydroxy-2-methylpropyl)-3,4-dihydroquinazolin-2(1H)-one] is 455 nM; for `O=C1N(CC(O)Cn2c3ccc(F)cc3c3cc(F)ccc32)CCCN1C1CCCCC1` (stereo not drawn) [Compound 74, 1-cyclohexyl-3-(3-(3,6-difluoro-9H-carbazol-9-yl)-2-hydroxypropyl)tetrahydropyrimidin-2(1H)-one] it is 284 nM; for `CC1CCCC(=O)N1CC(O)Cn1c2ccccc2c2ccccc21` (stereo not drawn) [Compound 63, 1-(3-(9H-carbazol-9-yl)-2-hydroxypropyl)-6-methylpiperidin-2-one] it is 541 nM.
For `O=C1NCCCN1CC(O)Cn1c2ccc(F)cc2c2cc(F)ccc21` (stereo not drawn) [Compound 71, 1-(3-(3,6-difluoro-9H-carbazol-9-yl)-2-hydroxypropyl)tetrahydropyrimidin-2(1H)-one] the value was 188 nM; for `CC(O)(CN1CCCC(C2CCC2)C1=O)Cn1c2ccc(F)cc2c2cc(F)ccc21` (stereo not drawn) [Compound 52, 3-cyclobutyl-1-(3-(3,6-difluoro-9H-carbazol-9-yl)-2-hydroxy-2-methylpropyl)piperidin-2-one], 1360 nM.
The compound `CC1CCN(CC(C)(O)Cn2c3ccc(F)cc3c3cc(F)ccc32)C1=O` (stereo not drawn) [Compound 30, 1-(3-(3,6-difluoro-9H-carbazol-9-yl)-2-hydroxy-2-methylpropyl)-3-methylpyrrolidin-2-one] gave an EC50 of 895 nM.
In the case of `CCC1CC(=O)N(CC(O)Cn2c3ccc(F)cc3c3cc(F)ccc32)C1` (stereo not drawn) [Compound 45, 1-(3-(3,6-difluoro-9H-carbazol-9-yl)-2-hydroxypropyl)-4-ethylpyrrolidin-2-one], the midpoint of the response, the EC50, lay at 52 nM.
Compound `CC1CCCN(CC(O)Cn2c3ccccc3c3ccccc32)C1=O` (stereo not drawn) [Compound 64, 1-(3-(9H-carbazol-9-yl)-2-hydroxypropyl)-3-methylpiperidin-2-one] gave an EC50 of 462 nM.
For `CC1CN(C)C(=O)N(CC(O)Cn2c3ccc(F)cc3c3cc(F)ccc32)C1` (stereo not drawn) [Compound 94, 1-(3-(3,6-difluoro-9H-carbazol-9-yl)-2-hydroxypropyl)-3,5-dimethyltetrahydropyrimidin-2(1H)-one] the value was 833 nM.
`CC(O)(CN1CCC(F)C1=O)Cn1c2ccc(F)cc2c2cc(F)ccc21` (stereo not drawn) [Compound 10, 1-(3-(3,6-difluoro-9H-carbazol-9-yl)-2-hydroxy-2-methylpropyl)-3-fluoropyrrolidin-2-one] returned an EC50 of 487 nM.
For `CC(O)(CN1CCC(F)(F)C1=O)Cn1c2ccc(F)cc2c2cc(F)ccc21` (stereo not drawn) [Compound 59, 1-(3-(3,6-difluoro-9H-carbazol-9-yl)-2-hydroxy-2-methylpropyl)-3,3-difluoropyrrolidin-2-one] the value was 986 nM; for `C[C@H]1CCN(C[C@H](O)Cn2c3ccccc3c3ccccc32)C1=O` [Compound 117, (S)-1-((R)-3-(9H-carbazol-9-yl)-2-hydroxypropyl)-3-methylpyrrolidin-2-one], 188 nM.
The figure for `C[C@@](O)(CN1CC[C@@H](F)C1=O)Cn1c2ccc(F)cc2c2cc(F)ccc21` [Compound 126, (R)-1-((S)-3-(3,6-difluoro-9H-carbazol-9-yl)-2-hydroxy-2-methylpropyl)-3-fluoropyrrolidin-2-one] is 958 nM; for `CC(O)(CN1CCOCC1=O)Cn1c2ccc(F)cc2c2cc(F)ccc21` (stereo not drawn) [Compound 56, 4-(3-(3,6-difluoro-9H-carbazol-9-yl)-2-hydroxy-2-methylpropyl)morpholin-3-one] it is 1060 nM.
For `CC1CCCN(CC(O)Cn2c3ccc(F)cc3c3cc(F)ccc32)C1=O` (stereo not drawn) [Compound 27, 1-(3-(3,6-difluoro-9H-carbazol-9-yl)-2-hydroxypropyl)-3-methylpiperidin-2-one] the value was 478 nM; for `CC1CC(=O)N(CC(O)Cn2c3ccc(F)cc3c3cc(F)ccc32)C1` (stereo not drawn) [Compound 43, 1-(3-(3,6-difluoro-9H-carbazol-9-yl)-2-hydroxypropyl)-4-methylpyrrolidin-2-one], 1030 nM; for `CC1CCC(=O)N(CC(C)(O)Cn2c3ccc(F)cc3c3cc(F)ccc32)C1` (stereo not drawn) [Compound 38, 1-(3-(3,6-difluoro-9H-carbazol-9-yl)-2-hydroxy-2-methylpropyl)-5-methylpiperidin-2-one], 1220 nM.
